The test system of experiment [1] is EpiDerm tissues. The experiment in a line: EpiDerm bioassay: cytokine, chemokine and growth factor levels by multiplexed immunoassay after croton oil insult. It counts as cell-based, human. To be noted: 24 hours; for G-CSF, percentage of the control / GM-CSF, percentage of the control / IL-1ra, percentage of the control / IL-10, percentage of the control / IL-13, percentage of the control / Leptin, percentage of the control / PGE2, percentage of the control / IL-4, percentage of the control: EpiDerm + 0.1% croton oil, percent difference vs croton oil alone; for IL-4, percentage of the control: 25% azelaic acid Na salt, 1% salicylic acid Na salt, 1% green tea extract, 1 μg/mL doxycycline hyclate (doxorubicin), 1% 4-ethoxybenzaldehyde, 0.025% all-trans retinoic acid. As to the method: Multiplexed immunoassays: […] Izbicka, et al., Cancer Genomics Proteomics (2012) 9(1):27-35]. Multiplexed immunoassays were performed using Luminex 100 IS System (Luminex Corporation, Austin, TX). Analyte concentrations were calculated from the standard curves using Bio-Plex Manager 4.1.1 (Bio-Rad Laboratories, Hercules, CA). EpiDerm Bioassays: The EpiDermTM 3-Dimensional Skin Model was purchased from MatTek Corporation (Ashland, MA). […] Conditioned media were collected, the remaining cells were homogenized on ice in the presence of protease and phosphatase inhibitors, and the lysates were clarified by centrifugation. The media and cell lysates were snap frozen at -70° C. Proteins were resolved by gel electrophoresis and visualized in immunoblots with human-specific antibodies to inducible nitric oxide synthase (iNOS), S-nitrosocysteine, and superoxide dismutase 2 (all from Abcam, Cambridge, MA). […] Croton oil (a chemical irritant) was used as a control. The results are shown as percent difference in marker levels in tissues treated with the test articles and those treated with croton oil alone. (Table 1). […] This pattern of tandem upregulation of examined markers in concert with downregulation of PGE2 was unique for DEA and was not observed with any other test article.

Experiment [2] has as its system EpiDerm tissues. In words: EpiDerm croton oil irritant toxicity: proliferation and viability assays, microscopic inspection. To be noted: 25% DEA, 0.1% croton oil. Format: cell-based, human. The procedure:
Cell proliferation and cytotoxicity assays: CellTiter 96 Non-Radioactive Cell Proliferation Assay (MTT), CellTiter 96 AQueous One Solution Cell Proliferation Assay (MTS) and CellTiter-Glo Luminescent Cell Viability (ATP) kits were purchased from Promega (Madison, WI). Protein concentration was measured using Micro BCA protein assay kit (Pierce Biotechnology, Rockford, IL). EpiDerm Bioassays: The EpiDerm™ 3-Dimensional Skin Model was purchased from MatTek Corporation (Ashland, MA). […] Conditioned media were collected, the remaining cells were homogenized on ice in the presence of protease and phosphatase inhibitors, and the lysates were clarified by centrifugation. The media and cell lysates were snap frozen at −70° C. Proteins were resolved by gel electrophoresis and visualized in immunoblots with human-specific antibodies to inducible nitric oxide synthase (iNOS), S-nitrosocysteine, and superoxide dismutase 2 (all from Abcam, Cambridge, MA). […] Croton oil (a chemical irritant) was used as a control. The results are shown as percent difference in marker levels in tissues treated with the test articles and those treated with croton oil alone. (Table 1). […] This pattern of tandem upregulation of examined markers in concert with downregulation of PGE2 was unique for DEA and was not observed with any other test article.

Experiment [3] concerns PBMCs. In words: Membrane fluidity measurement (pyrenedecanoic acid excimer fluorescence). It counts as cell-based, human. The note with it: 0.5% DEA. As to the method: Isolation of human peripheral blood mononuclear cells: Fresh human peripheral blood mononuclear cells (PBMC) specimens were obtained from healthy volunteers. The blood was collected into BD Vacutainer CPT Cell Preparation Tubes (Beckton Dickinson, Franklin Lakes, NJ) and centrifuged at 1,500×g at room temperature and PBMCs were isolated according to supplier's protocol. Cell counts and viability assessment using trypan blue exclusion were measured using hemocytometer. Membrane fluidity measurements: Membrane fluidity was measured using Membrane Fluidity Kit (PN […], Marker Gene Technologies, Eugene, OR). […] The fluorescence of the excimer (excitation at 355 nm, emission at 460 nm) was corrected for the monomer (excitation at 355 nm, emission at 400 nm). The inventors of the present disclosure have shown that altered membrane protein function with a U-shaped dose response. […] Physiological consequences of DEA membrane fluidizing activity were further investigated in human plasmacytoid dendritic cells, which express multiple PRRs including TLRs, NOD and dectin-1 receptors. Human plasmacytoid dendritic cells were stimulated with the receptor agonists alone or in combination with 0.5% DEA.

Experiment [4] concerns human plasmacytoid dendritic cells. The experiment in a line: ATP release and signaling with PRR agonists in plasmacytoid dendritic cells. Format: cell-based. The note with it: 0.5% DEA, 24 hours. The procedure: Cell proliferation and cytotoxicity assays: CellTiter 96 Non-Radioactive Cell Proliferation Assay (MTT), CellTiter 96 AQueous One Solution Cell Proliferation Assay (MTS) and CellTiter-Glo Luminescent Cell Viability (ATP) kits were purchased from Promega (Madison, WI). Protein concentration was measured using Micro BCA protein assay kit (Pierce Biotechnology, Rockford, IL).
Pathogen-associated molecular pattern receptor agonist studies: PRR agonist kits; human Toll-like receptor (TLR1-9; n=9 agonists), nucleotide oligomerization domain (NOD) NOD1/NOD2 (n=10 agonists, denoted n1, n2, . . . , n10) and dectin-1 (a single agonist) were purchased from InvivoGen, San Diego, CA Plasmacytoid human dendritic cells (MatTek Corporation, Ashland, MA) were diluted to 1.6×10^5 cells/mL and incubated with the agonists at the concentrations in the middle ranges recommended by the supplier in the absence of DEA or with 0.5% DEA for 24 hours. The levels of measured analytes were normalized to the numbers of viable cells.
The inventors of the present disclosure have shown that altered membrane protein function with a U-shaped dose response. At the concentration of 0.5% DEA increased membrane fluidity by 18% above the cholesterol control level. Physiological consequences of DEA membrane fluidizing activity were further investigated in human plasmacytoid dendritic cells, which express multiple PRRs including TLRs, NOD and dectin-1 receptors. […]
Human plasmacytoid dendritic cells (1.6×10^5/ml) were exposed to 20 different PRR agonists alone at the concentrations within physiological ranges of each agonist or in the presence of 0.5% DEA for 24 hours. The results are expressed as the ratios of secreted ATP from the cells treated with the PRR receptor agonists and DEA (treatment groups) to the levels of ATP secreted by the cells treated with the agonists alone (control groups). […] Extracellular levels were measured, and the results were expressed as the ratios of released ATP from the cells+receptor agonist+DEA to the ATP from the cells+receptor agonist alone.

The test system of experiment [5] is Balb/c mice. In words: Hot plate test, hind limb response latency. Format: in vivo. The note with it: 100% (neat) DEA topical to hind limb 5 minutes before test, 42° C., male mice; vs untreated control, p=0.03. As to the method: In vivo studies: Animal studies and all procedures were performed in compliance with the Animal Welfare Act Regulations (9 CFR 3) and the NIH guidelines for the care and use of laboratory animals at New Frontier Labs LLC, San Antonio, TX Both male and female Balb/c mice 8-10 weeks old weighing approximately 25 g were purchased from Taconic Farms (Hudson, NY). Animals were acclimatized for at least 72 hours after delivery. Prior to experiments the animals were randomized into treatment and control groups. For the assessment of nociceptive effect of DEA, only male mice were used (n=8 per group). The hot plate test was performed at a constant temperature of 42° C. as described in S. Hunskaar, et al., Eur. J. Pharmacol. 1985; 111(2):221-6, which is incorporated herein by reference. DEA was administered neat (100%) or diluted in ethanol (vehicle) to the hind limb. The treatments were administered 5 minutes prior to the heat test. The time between the heat exposure to the first incidence of animal licking the hind paw was measured with a stopwatch.
Statistical analysis: Statistical analysis was done using Student t statistic; p values <0.05 were considered significant. All samples/data were included in the analysis. Continuously distributed outcomes were summarized with the mean and standard deviation. […]
Background: Thermal pain tests record how soon the animal reacts.

The subject of experiment [6] is human PBMCs. Format: cell-based. The note with it: 0.5% DEA, confocal microscopy (FIG. 3).

Some results are limits rather than exact numbers.

In the case of `CCOc1ccc(C=O)cc1` [4-ethoxybenzaldehyde], in experiment [1], the “G-CSF, percentage of the control” value came to 340%; the “GM-CSF, percentage of the control” value is on record as −26%; the “IL-1ra, percentage of the control” value was 34%; the “IL-10, percentage of the control” value was 471%. For the same compound, in experiment [1], the “IL-13, percentage of the control” value came to 34%; the “Leptin, percentage of the control” value stood at 39%; the “PGE2, percentage of the control” value came out at 4%. The “IL-4, percentage of the control” value in experiment [1] (25% DEA) is 80%.

As to `O=C(O)CCCCCCCC(=O)O` [Azelaic acid, azelaic acid], in experiment [1], the “G-CSF, percentage of the control” value is on record as −100%; the “GM-CSF, percentage of the control” value is on record as −16%; the “IL-1ra, percentage of the control” value was determined as 18%; the “IL-10, percentage of the control” value worked out at 152%. Also, in experiment [1], the “IL-13, percentage of the control” value is recorded as −4%; the “Leptin, percentage of the control” value is given as 41%; the “PGE2, percentage of the control” value is −1%. In addition, in experiment [1] (25% DEA), the “IL-4, percentage of the control” value was determined as 40%.

For the compound `CCOC(=O)CCCCCCCC(=O)OCC` [DEA, diethyl azelate], the “effect on pro-inflammatory markers among 57 examined cytokines, chemokines and growth factors” value in experiment [1] (25% DEA, 0.1% croton oil) is recorded as “downregulated most of the pro-inflammatory markers”. In experiment [1], the “G-CSF, percentage of the control” value was determined as 561%; the “GM-CSF, percentage of the control” value is 280%; the “IL-1ra, percentage of the control” value is listed as 33%; the “IL-10, percentage of the control” value was 200%. In experiment [1], the “IL-13, percentage of the control” value is recorded as 112% and the “Leptin, percentage of the control” value came to 51%. Moreover, the “IL-4, percentage of the control” value in experiment [1] (25% DEA) is reported as 600%. Moreover, the “tissue integrity as evaluated by microscopic inspection” value in experiment [2] was “protected tissue integrity”. Moreover, the “croton oil irritant toxicity in proliferation and viability assays” value in experiment [2] (24 hours) is on record as “nullified croton oil irritant toxicity”. The “increase of membrane fluidity above the cholesterol control level” value in experiment [3] is listed as 18%. In addition, the “effect on ATP signaling with NOD receptor ligands n9 and n10” value in experiment [4] is reported as “no apparent effect”. Also, the “cellular signaling from all examined PRR” value in experiment [4] (TLR, NOD, dectin-1 agonists) was “downregulated cellular signaling from all examined PRR”. In addition, in experiment [4] (all PRR agonists except NOD ligands n9 and n10 (FIG. 1)), the “ratio of released ATP, cells+receptor agonist+DEA to cells+receptor agonist alone” value is recorded as below 1. Further, the “decrease of heat sensitivity (hot plate response latency)” value in experiment [5] was determined as 33%. Besides, in experiment [6], the “foci of enhanced cholera toxin B subunit fluorescence on plasma membranes” value is listed as “no foci of enhanced fluorescence were detectable”.

As for `COc1cccc2c1C(=O)c1c(O)c3c(c(O)c1C2=O)C[C@@](O)(C(=O)CO)C[C@@H]3O[C@H]1C[C@H](N)[C@H](O)[C@H](C)O1` [Doxorubicin, doxorubicin], in experiment [1], the “G-CSF, percentage of the control” value was determined as 0%; the “GM-CSF, percentage of the control” value is listed as −3%; the “IL-1ra, percentage of the control” value is given as 15%; the “IL-10, percentage of the control” value turned out to be 214%. Further, in experiment [1], the “IL-13, percentage of the control” value is given as −38%; the “Leptin, percentage of the control” value was 116%; the “PGE2, percentage of the control” value is −2%. The “IL-4, percentage of the control” value in experiment [1] (25% DEA) worked out at 80%.

With `CC1=C(/C=C/C(C)=C/C=C/C(C)=C/C(=O)O)C(C)(C)CCC1` [Retinoic acid, all-trans retinoic acid], in experiment [1], the “G-CSF, percentage of the control” value came out at 360%; the “GM-CSF, percentage of the control” value is given as −39%; the “IL-1ra, percentage of the control” value is given as 20%; the “IL-10, percentage of the control” value came to 369%. In experiment [1], the “IL-13, percentage of the control” value was −19%; the “Leptin, percentage of the control” value stood at 36%; the “PGE2, percentage of the control” value was determined as 4%. Moreover, the “IL-4, percentage of the control” value in experiment [1] (25% DEA) amounted to 100%.

For the compound `O=C(O)c1ccccc1O` [Salicylic acid, salicylic acid], in experiment [1], the “G-CSF, percentage of the control” value was 640%; the “GM-CSF, percentage of the control” value was −7%; the “IL-1ra, percentage of the control” value was 15%; the “IL-10, percentage of the control” value was determined as 257%. In experiment [1], the “IL-13, percentage of the control” value was −46%; the “Leptin, percentage of the control” value came out at 202%; the “PGE2, percentage of the control” value is reported as 5%. For the same compound, the “IL-4, percentage of the control” value in experiment [1] (25% DEA) came to 40%.
